Here are results for five molecules from US7208309B2, “Inhibitor-resistant HCV NS3 protease” (priority 2002, dated 2007).

Like-named read-outs stand apart in the source and are kept apart here. Numbered stars: 1 amine (or outer) side, 2 acyl side, 3 side chain; on linkers, the order of the positions; unused ones are H or OH. Square brackets hold non-standard residues; d marks the D form. Peptide text beside a SMILES is read from it. * marks the point of attachment. Hyp(2-Ph-quinolin-4-yl) = O=C(O)[C@@H]1C[C@@H](Oc2cc(-c3ccccc3)nc3ccccc23)CN1; X1 = C=CC1C[C@]1(N[*:1])C(=O)[*:2]; Hyp = O=C(O)[C@@H]1C[C@@H](O)CN1; Chg = N[C@H](C(=O)O)C1CCCCC1; Tle = CC(C)(C)[C@H](N)C(=O)O; Nva = CCC[C@H](N)C(=O)O; Bn = c1ccc(C*)cc1

Test [1] deals with T1, NS3-NS4A protein WT (Hepatitis C virus genotype 1b, UniProt Q9WMX2).
T1 construct: TEV protease cleavage site (N); made in house; host or cells: E. coli (pET11a)
Briefly: In vitro enzyme assay, Ki, full length NS3/NS4A protein WT. Type of test: biochemical, HCV genotype 1b. The source says: (§1) DNA encoding the NS3-NS4A coding region of HCV genotype 1b, that includes a 28-residue N-terminal sequence containing a hexahistidine tag and a TEV protease cleavage (Pause, A. et al. (2003) J. Biol. Chem. 278: 20374–20380) was amplified by PCR and then subcloned into the pET11a bacterial expression vector. Amino acid substitutions A156T and D168V were introduced into the NS3-NS4A coding region using standard site-directed mutagenesis procedures.
(§2) The NS3 protease domain (harboring A156T or D168V or R155Q mutations) were expressed in E. coli and purified as previously described (LaPlante, S. R. et al (1999) J. Biol. Chem. 274: 18618–18624). The NS3-NS4A proteins with either A156T or D168V mutation were also expressed in E. coli and the cell paste was resuspended in 5 mL of lysis buffer (50 mM sodium phosphate, pH 7.5, 20% glycerol, 1 mM EDTA, 0.5% Triton X-100, 0.5 M NaCl) per gram of cells, treated with DNase I, then clarified by a 30-min centrifugation at 150,000×g; the supernatant was diluted 2-fold in 50 mM sodium phosphate, pH 7.5, 0.5 M NaCl and imidazole was added to a final concentration of 25 mM. The NS3-NS4A complex solution was purified by successive steps on a Hi-Trap Ni^+2-chelating column, and poly(U)-Sepharose affinity column previously equilibrated in 50 mM sodium phosphate, pH 7.0, 10% glycerol, 0.2 M NaCl, 0.05% n-dodecyl-β-D-maltoside, 10 mM β-mercaptoethanol. The enzyme was eluted in the same buffer containing 2 M NaCl. The isolated enzymes were stored at −80° C.
(§3) Ki determination—The inhibition constant (Ki) was determined using the depsipeptide fluorogenic substrate anthranilyl-DDIVPAbu[C(O)—O]AMY(3-NO2)TW-OH. The cleavage reaction was continuously monitored at 23° C. on a BMG POLARstar® Galaxy fluorometer, equipped with excitation and emission filters of 320 and 405 nm respectively. […] IC50's were obtained from a non-linear curve fit using the Hill model applied to the % inhibition-concentration data and calculated through the use of SAS (Statistical Software System, SAS Institute Inc., Cary, N.C.).

The target in test [2] is T2, NS3-NS4A protein D168V (Hepatitis C virus genotype 1b, UniProt Q9WMX2, D1194V).
T2 construct: TEV protease cleavage site (N); made in house; host or cells: E. coli (pET11a)
Briefly: In vitro enzyme assay, Ki, full length NS3/NS4A protein D168V. Format: biochemical, HCV genotype 1b.
From the text: as §1, §2, §3

In test [3] the target is T3, NS3-NS4A protein A156T (Hepatitis C virus genotype 1b, UniProt Q9WMX2, A1182T).
T3 construct: TEV protease cleavage site (N); made in house; host or cells: E. coli (pET11a)
Briefly: In vitro enzyme assay, Ki, full length NS3/NS4A protein A156T. Format: biochemical, HCV genotype 1b.
From the text: as §1
(§4) The NS3 protease domain (harboring A156T or D168V or R155Q mutations) were expressed in E. coli and purified as previously described (LaPlante, S. R. et al (1999) J. Biol. Chem. 274: 18618–18624). […]
as §3

For test [4], the system named is bicistronic subgenomic HCV RNA replicon (S22.3 cell line). Briefly: HCV RNA replicon cell culture EC50 of the inhibitors used for selection. Type of test: cell-based. The note with it: EC50 stated for the inhibitor used in resistance selection, replicon cells. An excerpt:
The method described by Lohmann et al. (1999, Science 285:110) was used to mimic the replication of subgenomic HCV RNA in a system that is dependent on the function of HCV non-structural proteins and enzymes. This HCV RNA replicon system incorporates two cistrons: one encoding the HCV non-structural region and the second encoding a selectable neomycin resistant marker (i.e. gene encoding neomycin phosphotransferase). As one of skill in the art will appreciate, the second cistron may encode any marker suitable for selection purposes. Cell lines harboring such bicistronic, subgenomic HCV RNA, such as the S22.3 cell line, are described by Kukolj and Pause (see WO 02/052015, the contents of which are hereby incorporated by reference). These cell lines are useful in evaluating the efficacy and potency of potential anti-HCV therapeutics that inhibit one or more of the HCV non-structural proteins.
As shown, Huh-7 cells (8×10^6 cells) were transfected with the bicistronic subgenomic HCV RNA using transfection methods well-established in the art. Transfected Huh-7 cells were selected by growth in neomycin-containing media (0.5 mg/ml neomycin). Specifically, transfected cells replicate the RNA that produces neomycin phosphotransferase thereby rendering the cells resistant to the cytotoxic effect of neomycin. Mutated HCV replicons as described in WO 02/052015 can also be used in accordance with the present method to increase RNA replication and efficiency of replicon establishment.
inhibitor A=cyclopropa[e]pyrrolo [1,2-a][1,4]diazacyclopentadecine-14a(5H)-carboxylic acid, 6-[[(cyclopentyloxy) carbonyl]amino]-1,2,3,6,7,8,9,10,11,13a, 14,15,16,16a-tetradecahydro-2-[[7-methoxy-2-[2-[(1-methylethyl)amino]-4-thiazolyl]-4-quinolinyl]oxy]-5,16-dioxo-, (2R,6S, 12Z, 13aS, 14aR, 16aS), which is described as compound #822 in WO 00/59929, the contents of which is hereby incorporated by reference. The colonies were grown in the presence of increasing concentrations of this inhibitor (EC50 of 2 nM) ranging from 2 nM to 2000 nM.
(In general: Replicon systems follow genome replication, usually without infectious particles.)

Test [5] deals with WT HCV subgenomic replicon in Huh-7 cells. Briefly: Inhibitor EC50 in WT replicon cell line. Type of test: cell-based. The note with it: Hepatitis C virus.
Test [6] relates to NS3 A156T mutant HCV subgenomic replicon in Huh-7 cells. Briefly: Inhibitor EC50 in NS3 A156T mutant replicon cell line. The note with it: Hepatitis C virus, Huh-7, read-out: EC50, A156T. Type of test: cell-based. The source says:
(§5) Specific isogenic HCV subgenomic replicon cDNAs individually containing only one of the inhibitor-resistant mutations, i.e. (in this example: A156T; or A156V; or D168V; or D168G) were cloned and corresponding in vitro transcribed RNA of these modified bi-cistronic replicons were generated. The mutant-encoding RNAs were used to construct mutant-containing replicon cell lines in naïve Huh-7 cells as described previously for other HCV replicons. […] They were also used to determine the level of inhibition of the mutant inhibitor-resistant cell lines in the presence of an unrelated HCV NS5B polymerase inhibitor or alpha-interferon. Using the assay described in WO 03/010141 (Example 48) the EC50 of each inhibitor was determined using the mutant cell lines.

Test [7] has as its system NS3 A156V mutant HCV subgenomic replicon in Huh-7 cells. Kind of test: Inhibitor EC50 in NS3 A156V mutant replicon cell line. Format: cell-based. The note with it: Hepatitis C virus, Huh-7, read-out: EC50, A156V.
From the text: as §5

Test [8] deals with NS3 D168V mutant HCV subgenomic replicon in Huh-7 cells. Briefly: Inhibitor EC50 in NS3 D168V mutant replicon cell line. Type of test: cell-based. The note with it: Hepatitis C virus, Huh-7, read-out: EC50, D168V.
From the text: as §5

Test [9] concerns NS3 D168G mutant HCV subgenomic replicon in Huh-7 cells. Briefly: Inhibitor EC50 in NS3 D168G mutant replicon cell line. Type of test: cell-based. The note with it: Hepatitis C virus, Huh-7, read-out: EC50, D168G.
From the text: as §5

Test [10] has as its target T4, NS3 protease (1-180) WT-NS4A peptide complex (Hepatitis C virus genotype 1b, UniProt Q9WMX2).
T4 construct: the NS3 protease (1–180) coding region for wild-type; made in house; host or cells: bacterial expression vector (E. coli)
Kind of test: In vitro enzyme assay, Ki, NS3 protease-NS4A peptide complex WT. Format: biochemical, HCV.
From the text: (§6) Alternatively, the NS3 protease (1–180) coding region for wild-type with the sequence ASKKKK at the C-terminus was cloned into a bacterial expression vector and amino acid substitutions A156T, D168V and R155Q were introduced as described above.
as §4, §3

Test [11] addresses T5, NS3 protease (1-180) A156T-NS4A peptide complex (Hepatitis C virus genotype 1b, UniProt Q9WMX2, A1182T).
T5 construct: the NS3 protease (1–180) coding region for wild-type; made in house; host or cells: E. coli
Kind of test: In vitro enzyme assay, Ki, NS3 protease-NS4A peptide complex A156T. Format: biochemical, HCV. The note with it: calculated Ki from IC50.
From the text: as §6, §4, §3

Test [12] has as its target T6, NS3 protease (1-180) D168V-NS4A peptide complex (Hepatitis C virus genotype 1b, UniProt Q9WMX2, D1194V).
T6 construct: the NS3 protease (1–180) coding region for wild-type; made in house; host or cells: E. coli
Briefly: In vitro enzyme assay, Ki, NS3 protease-NS4A peptide complex D168V. Type of test: biochemical, HCV. The note with it: calculated Ki from IC50.
From the text: as §6, §4, §3

Test [13] has as its target T7, NS3 protease (1-180) R155Q-NS4A peptide complex (Hepatitis C virus genotype 1b, UniProt Q9WMX2, R1181Q).
T7 construct: the NS3 protease (1–180) coding region for wild-type; made in house; host or cells: E. coli
Briefly: In vitro enzyme assay, Ki, NS3 protease-NS4A peptide complex R155Q. Type of test: biochemical, HCV. The note with it: calculated Ki from IC50.
From the text: as §6, §4, §3

The Ki is a measure of affinity in units of concentration, obtained from inhibition or displacement. With `CCC[C@H](NC(=O)[C@@H]1C[C@@H](OCc2ccccc2)CN1C(=O)[C@@H](NC(=O)[C@@H](NC(=O)[C@@H](CCC(=O)O)NC(=O)[C@H](CC(=O)O)NC(C)=O)[C@@H](C)CC)C(C)C)C(=O)O` [Compound E] (Ac-D[dE]IV[Hyp](Bn)[Nva]-OH), the Ki in test [1] is 1600 nM; in [2] (read-out: Ki, D168V), 8100 nM.
On to `C=CC1C[C@]1(NC(=O)[C@@H]1C[C@@H](Oc2cc(-c3ccccc3)nc3ccccc23)CN1C(=O)[C@@H](NC(=O)[C@@H](NC(=O)[C@@H](CCC(=O)O)NC(=O)[C@H](CC(=O)O)NC(C)=O)C1CCCCC1)C(C)(C)C)C(=O)O` (some centres unmarked) [Compound F] (Ac-D[dE][Chg][Tle][Hyp(2-Ph-quinolin-4-yl)][X1]-OH), for which the Ki in test [1] stood at 0.047 nM; in test [3] (read-out: Ki, A156T), 29 nM; in test [2] (read-out: Ki, D168V), 12 nM.
The EC50 is the concentration giving half of the maximal effect. Take `COc1ccc2c(O[C@@H]3C[C@H]4C(=O)N[C@]5(C(=O)O)C[C@H]5/C=C\CCCCC[C@H](NC(=O)OC5CCCC5)C(=O)N4C3)cc(-c3csc(NC(C)C)n3)nc2c1` [inhibitor A, cyclopropa[e]pyrrolo [1,2-a][1,4]diazacyclopentadecine-14a(5H)-carboxylic acid, 6-[[(cyclopentyloxy)carbonyl]amino]-1,2,3,6,7,8,9,10,11,13a, 14,15,16,16a-tetradecahydro-2-[[7-methoxy-2-[2-[(1-methylethyl)amino]-4-thiazolyl]-4-quinolinyl]oxy]-5,16-dioxo-, (2R,6S, 12Z, 13aS, 14aR, 16aS)]: the EC50 is 2 nM in [4] (Hepatitis C virus); 0.9 nM in test [5]; 547 nM in test [6]; 324 nM in test [7]; 735 nM in test [8]; 23 nM in test [9]. The Ki in test [1] is 1.6 nM; in [3] (calculated Ki from IC50, read-out: Ki, A156T (calculated Ki from IC50)), 870 nM; in test [2] (calculated Ki from IC50, read-out: Ki, D168V (calculated Ki from IC50)), 520 nM; in [10], 5.6 nM; in test [11], 800 nM; in test [12], 970 nM. Further, the Ki in [13] was 220 nM.
In turn, `C=C[C@@H]1C[C@]1(NC(=O)[C@@H]1C[C@@H](Oc2cc(-c3csc(NC(C)=O)n3)nc3cc(OC)ccc23)CN1C(=O)[C@@H](NC(=O)OC1CCCC1)C(C)(C)C)C(=O)O` [inhibitor B, cyclopropane carboxylic acid, N-[(cyclopentyloxy)carbonyl]-3-methyl-L-valyl-(4R)-4-[[2-[2-(acetylamino)-4-thiazolyl]-7-methoxy-4-quinolinyl]oxy]-L-prolyl-1-amino-2-ethenyl-, (1R,2S)-] registered an EC50 in [4] of 40 nM.
Molecule `COc1ccc2c(O[C@@H]3C[C@H]4C(=O)N[C@]5(C(=O)O)C[C@H]5/C=C\CCCCC[C@H](NC(=O)OC(C)(C)C)C(=O)N4C3)cc(-c3csc(NC(C)=O)n3)nc2c1` [inhibitor C, Cyclopropa[e]pyrrolo[1,2-a][1,4]-diazacyclopentadecine-14a(5H)-carboxylic acid, 2-[[2-[2-(acetylamino)-4-thiazolyl]-7-methoxy-4-quinolinyl]oxy]-6-[[(1,1-dimethylethoxy)carbonyl]amino]-1,2,3,6,7,8,9,10,11,13a,14,15,16,16a-tetradecahydro-5,16-dioxo-, (2R,6S, 12Z, 13aS, 14aR, 16aS)-] had an EC50 in [4] of 5 nM.
